“Also recorded” adds a separate entry of the source.
Assays:
[1] = tested on: type 1 herpes simplex virus; details: cited from earlier work
L-1210 lymphoid leukemia = L-1210 lymphoid leukemia in vivo screen, median survival (Example 5); set-up: species or system CD2 F1 male mice; details: for Percent Treated Animals/Control Animals: >125% positive; for Treated Group Survival Time (median): control 8.5
Source text: As an indicator of reproducible activity, compound 1 of the invention was screened against L-1210 lymphoid leukemia in vivo using CD2 F1 male mice as the testing species. The parameter of efficacy chosen was based upon the median survival time of animals treated with the drug vs. appropriate control group animals. Both drug treated animals and control group animals were inoculated IP with 10^5 seed cells of L-1210 lymphoid leukemia in Ascitic fluid.
One day after tumor inoculation, the drug group of animals was placed on a regimen of treatment of compound 1 at the dose levels as noted below, table 1. The drug treated group of animals was inoculated once daily for five days at the doses noted by IP injection of the test compound appropriately diluted with water.
Day six was chosen as an indication of drug toxicity. […] Death of drug treated animals after day six was, therefore, attributed to tumor deaths and not drug toxicity.
The median death day of the control group was day 8.5. […] A percent of drug treated animals/control animals greater than 125% is taken as positive drug activity.

viruses = details: test viruses; cited from earlier work
[2] = toxicity in tumor bearing animals; type: in vivo; details: dosages up to 2000 mg/Kg, toxicity day
Source text: In a host which has been diagnosed as being terminally ill with a malignant tumor excessive amounts beyond any toxicity range might be indicated if there is any probability of cure of the terminally ill host as is commonly practiced in current cancer chemotherapy.

[3] = blood brain barrier crossing after IP injection (Example 12); type: in vivo, AKD2 F1 mice; details: inferred from activity on intracranial tumor after IP injection
Source text: For Example 12, compound 1 was given IP to a group of AKD2 F1 mice which were inflicted by intercranial inoculation with Lewis lung seed cells to establish brain tumors.
For this test, 32 control animals were used and no control animals survived beyond day eleven with a mean death data of day 9.6 for the controls. Water was used as the drug vehicle. For both the control group and the test group, tumors were induced on day zero with initiation of drug treatment on day one where compound 1 was given once daily for nine days. Test results are expressed as T/C as per example 5.

[4] = tested on: type 3 parainfluenza virus; details: cited from earlier work
[5] = tested on: P388 lymphocytic leukemia; assay: P388 lymphocytic leukemia in vivo, median survival, 30-day test (Examples 7 and 8); set-up: species or system CD2 F1 female mice
Protocol: For examples 7 and 8, CD2 F1 female mice were used and challenged with P388 lymphocytic leukemia tumors. […] The test period was for thirty days in both Examples 7 and 8.
For Examples 7 and 8, as well as Examples 9 and 10 below, any animal of the drug treated group which survived beyond the end of the testing period was then evaluated and placed in one of three groups. The first group was designated as cured, meaning the animal was successfully cured of the tumor. The second group designation was no-takes, meaning survival of the animal was considered to be due to failure of tumor implant. The remaining group was designated as tumor survivors meaning the animals lived beyond the test cut-off date but could not be classified as either cured or no-takes.
For both Examples 7 and 8, thirty animals were used as the control group and six animals each were used at each dose level indicated in tables 3 and 4 below in the drug treated groups. In both Examples 7 and 8, for both the control group and the drug treated groups, tumors were induced by IP inoculation of tumor seed cells on day zero followed by initiation of drug treatment on day one. For both Examples 7a and 8, saline with tween/80 was used as the drug vehicle. For Examples 7b and 7c, water was used as the drug vehicle.
In both the control group and the drug treated group in Examples 7 and 8, the test animals were inoculated on day zero IP with 10^6 seed cells of P388 lymphocytic leukemia. In both Examples 7 and 8, treatment of the drug group was started on day one and the drug was given IP once daily for nine days. Day six was utilized as the cut-off data for death attributable to toxicity of the drug. […] Efficacy of treatment was determined by comparing median survival time of the drug treated animals compared to median survival time of the control animals, and is expressed as percentage increase of treated animals/control animals (T/C) as per Example 5.
In this example drug treated animals were injected IP with the dose level noted in Table 3 below. Six animals were treated at each dose level. No control animals survived beyond day 18 with a median death date of day 12.6.
This examples was performed as per Example 7a at dose levels as noted in table 3b below. A survivor at both the 700 and 800 mg/Kg level was judged as cured. No controls survived beyond day 12 and the mean death day of the control group was day 11.
This example was run as per Example 7a above at dose levels noted in Table 3c below. All controls were dead by day 14 with a mean death day of day 11.9. At the 500 mg/Kg level, one animal was judged as a cure.
Compound 2, 2-(2,3,5-tri-O-acetyl-β-D-ribofuranosyl)thiazole-4-carboxamide was tested as per Example 7a above at dose levels noted in Table 4 below. No controls survived beyond day 18 with an average death date of day 12.6.

With NC(=O)c1csc([C@@H]2O[C@H](CO)[C@@H](O)[C@H]2O)n1 [Compound 1, 2-β-D-Ribofuranosylthiazole-4-Carboxamide] as the compound, how does the “in vitro antiviral activity” value [1] read?
Its value is “only moderate”.

What about the “Percent Treated Animals/Control Animals” value (L-1210 lymphoid leukemia; 12.5 mg/Kg IP once daily x5) of the same compound?
The value was 111%.

And the “Treated Group Survival Time (median)” value (L-1210 lymphoid leukemia; 12.5 mg/Kg IP once daily x5)?
Its value is 9.5 days.

And the “Percent Treated Animals/Control Animals” value (L-1210 lymphoid leukemia; 25 mg/Kg IP once daily x5)?
Its value is 120%.

And the “Treated Group Survival Time (median)” value (L-1210 lymphoid leukemia; 25 mg/Kg IP once daily x5)?
The value was 10.2 days.

And the “Percent Treated Animals/Control Animals” value (L-1210 lymphoid leukemia; 50 mg/Kg IP once daily x5)?
Its value is 129%.

What about the “Treated Group Survival Time (median)” value (L-1210 lymphoid leukemia; 50 mg/Kg IP once daily x5) of the same compound?
Its value is 11.0 days.

And the “Percent Treated Animals/Control Animals” value (L-1210 lymphoid leukemia; 100 mg/Kg IP once daily x5)?
The value was 149%.

What about the “Treated Group Survival Time (median)” value (L-1210 lymphoid leukemia; 100 mg/Kg IP once daily x5) of the same compound?
The value was 12.7 days.

And the “Percent Treated Animals/Control Animals” value (L-1210 lymphoid leukemia; 200 mg/Kg IP once daily x5)?
The value was 168%.

What about the “Treated Group Survival Time (median)” value (L-1210 lymphoid leukemia; 200 mg/Kg IP once daily x5) of the same compound?
The value was 14.3 days.

What about the “survival through day six (drug toxicity)” value (L-1210 lymphoid leukemia; 12.5-200 mg/Kg IP once daily x5) of the same compound?
The value was “all drug treated animals survived through day six”.

What about the “activity in multiple dose assay” value (L-1210 lymphoid leukemia; T/C >125% taken as positive) of the same compound?
The value was “positive activity”.

And the “median death day vs control” value (L-1210 lymphoid leukemia; all levels of drug tested)?
The value was “longer at all levels of drug tested”.

And the “median death day vs control” value (L-1210 lymphoid leukemia; greater than 50 mg/Kg)?
The value was “significantly longer”.

What about the “spectrum of in vitro antiviral activity, preliminary” value (viruses) of the same compound?
The value was “marginal in vitro activity”.

What about the “deaths attributed to toxicity” value [2] of the same compound?
Its value is “no deaths of the animals were attributed to the toxicity”.

And the “crossing of the blood brain barrier” value [3]?
Its value is “successful crossing of the blood brain barrier; also recorded: successfully crosses the blood brain barrier”.

And the “in vitro antiviral activity” value [4]?
Its value is “only moderate”.

What about the “Percent Treated Animals/Control Animals” value ([5]; Ex. 7a/8, saline with tween/80, 12.5 mg/Kg IP once daily x9) of the same compound?
Its value is 110%.

What about the “Treated Group Survival Time (median)” value ([5]; Ex. 7a/8, saline with tween/80, 12.5 mg/Kg IP once daily x9, control 12.6) of the same compound?
The value was 13.9 days.

And the “Percent Treated Animals/Control Animals” value ([5]; Ex. 7a/8, saline with tween/80, 25 mg/Kg IP once daily x9)?
Its value is 113%.

What about the “Treated Group Survival Time (median)” value ([5]; Ex. 7a/8, saline with tween/80, 25 mg/Kg IP once daily x9, control 12.6) of the same compound?
Its value is 14.3 days.

What about the “Percent Treated Animals/Control Animals” value ([5]; Ex. 7a/8, saline with tween/80, 50 mg/Kg IP once daily x9) of the same compound?
The value was 121%.

What about the “Treated Group Survival Time (median)” value ([5]; Ex. 7a/8, saline with tween/80, 50 mg/Kg IP once daily x9, control 12.6) of the same compound?
Its value is 15.3 days.

And the “Percent Treated Animals/Control Animals” value ([5]; Ex. 7a/8, saline with tween/80, 100 mg/Kg IP once daily x9)?
Its value is 145%.

And the “Treated Group Survival Time (median)” value ([5]; Ex. 7a/8, saline with tween/80, 100 mg/Kg IP once daily x9, control 12.6)?
The value was 18.3 days.

What about the “Percent Treated Animals/Control Animals” value ([5]; Ex. 7a/8, saline with tween/80, 200 mg/Kg IP once daily x9) of the same compound?
The value was 150%.

And the “Treated Group Survival Time (median)” value ([5]; Ex. 7a/8, saline with tween/80, 200 mg/Kg IP once daily x9, control 12.6)?
Its value is 19.0 days.

What about the “Percent Treated Animals/Control Animals” value ([5]; Ex. 7a/8, saline with tween/80, 400 mg/Kg IP once daily x9) of the same compound?
Its value is 161%.

And the “Treated Group Survival Time (median)” value ([5]; Ex. 7a/8, saline with tween/80, 400 mg/Kg IP once daily x9, control 12.6)?
The value was 20.3 days.

What about the “surviving animals judged as no-take” value ([5]; Ex. 7a/8, 50 mg/Kg, thirty days) of the same compound?
Its value is “one drug treated animal survived and was judged as a no-take”.

What about the “Percent Treated Animals/Control Animals” value ([5]; Ex. 7b, water, 300 mg/Kg IP once daily x9) of the same compound?
Its value is 198%.

What about the “Treated Group Survival Time (median)” value ([5]; Ex. 7b, water, 300 mg/Kg IP once daily x9, control 11.0) of the same compound?
Its value is 21.8 days.

And the “Percent Treated Animals/Control Animals” value ([5]; Ex. 7b, water, 400 mg/Kg IP once daily x9)?
Its value is 224%.

And the “Treated Group Survival Time (median)” value ([5]; Ex. 7b, water, 400 mg/Kg IP once daily x9, control 11.0)?
The value was 24.7 days.

And the “Percent Treated Animals/Control Animals” value ([5]; Ex. 7b, water, 500 mg/Kg IP once daily x9)?
Its value is 190%.

What about the “Treated Group Survival Time (median)” value ([5]; Ex. 7b, water, 500 mg/Kg IP once daily x9, control 11.0) of the same compound?
Its value is 21.8 days.

And the “Percent Treated Animals/Control Animals” value ([5]; Ex. 7b, water, 600 mg/Kg IP once daily x9)?
Its value is 234%.

What about the “Treated Group Survival Time (median)” value ([5]; Ex. 7b, water, 600 mg/Kg IP once daily x9, control 11.0) of the same compound?
The value was 25.8 days.

And the “Percent Treated Animals/Control Animals” value ([5]; Ex. 7b, water, 700 mg/Kg IP once daily x9)?
Its value is 245%.

And the “Treated Group Survival Time (median)” value ([5]; Ex. 7b, water, 700 mg/Kg IP once daily x9, control 11.0)?
The value was 27.0 days.

What about the “Percent Treated Animals/Control Animals” value ([5]; Ex. 7b, water, 800 mg/Kg IP once daily x9) of the same compound?
Its value is 245%.

What about the “Treated Group Survival Time (median)” value ([5]; Ex. 7b, water, 800 mg/Kg IP once daily x9, control 11.0) of the same compound?
Its value is 27.0 days.

What about the “survivors judged as cured” value ([5]; Ex. 7b, 700 mg/Kg, thirty days) of the same compound?
The value was “A survivor”.

And the “survivors judged as cured” value ([5]; Ex. 7b, 800 mg/Kg, thirty days)?
The value was “A survivor”.

And the “Percent Treated Animals/Control Animals” value ([5]; Ex. 7c, water, 300 mg/Kg IP once daily x9)?
Its value is 193%.

What about the “Treated Group Survival Time (median)” value ([5]; Ex. 7c, water, 300 mg/Kg IP once daily x9, control 11.9) of the same compound?
The value was 23.0 days.

What about the “Percent Treated Animals/Control Animals” value ([5]; Ex. 7c, water, 400 mg/Kg IP once daily x9) of the same compound?
Its value is 201%.

What about the “Treated Group Survival Time (median)” value ([5]; Ex. 7c, water, 400 mg/Kg IP once daily x9, control 11.9) of the same compound?
Its value is 24.0 days.

And the “Percent Treated Animals/Control Animals” value ([5]; Ex. 7c, water, 500 mg/Kg IP once daily x9)?
Its value is 210%.

And the “Treated Group Survival Time (median)” value ([5]; Ex. 7c, water, 500 mg/Kg IP once daily x9, control 11.9)?
Its value is 25.0 days.

And the “Percent Treated Animals/Control Animals” value ([5]; Ex. 7c, water, 600 mg/Kg IP once daily x9)?
The value was 237%.

And the “Treated Group Survival Time (median)” value ([5]; Ex. 7c, water, 600 mg/Kg IP once daily x9, control 11.9)?
The value was 28.3 days.

What about the “Percent Treated Animals/Control Animals” value ([5]; Ex. 7c, water, 700 mg/Kg IP once daily x9) of the same compound?
The value was 86%.

What about the “Treated Group Survival Time (median)” value ([5]; Ex. 7c, water, 700 mg/Kg IP once daily x9, control 11.9) of the same compound?
The value was 10. day.

And the “Percent Treated Animals/Control Animals” value ([5]; Ex. 7c, water, 800 mg/Kg IP once daily x9)?
The value was 99%.

What about the “Treated Group Survival Time (median)” value ([5]; Ex. 7c, water, 800 mg/Kg IP once daily x9, control 11.9) of the same compound?
The value was 11.8 days.

And the “animals judged as a cure” value ([5]; Ex. 7c, 500 mg/Kg, thirty days)?
Its value is “one animal”.

And the “animal mortality attributed to drug toxicity” value ([5]; Example 7b, day six cut-off)?
The value was “only one instance”.

What about the “activity against P388 lymphocytic leukemia” value ([5]; Examples 7 and 8, multiple dose) of the same compound?
The value was “active antitumor agents; also recorded: active against P388 lymphocytic leukemia”.

And the “DN 2 (Decision Network) criteria of the National Cancer Institute” value ([5]; P388)?
Its value is “successfully passed”.
